In ChEMBL document CHEMBL3045418, “Design, synthesis and antidepressant activity evaluation 2-hydroxy-4,6-diisoprenyloxychalcone derivatives” (2013):

Assays:
Type in all cases: functional
Details in all cases: route intraperitoneal
Mus musculus [1] = test: Increase in yohombine-induced mortality in Kunming Mus musculus (mouse) at 30 mg/kg, ip administered for 1 hr prior to yohombine challenge measured after 24 hr (reference value: 20%)
Mus musculus [2] = test: Antidepressant activity in Kunming Mus musculus (mouse) assessed as immobility time at 10 mg/kg, ip administered 30 min prior to testing measured after 2 to 6 min by forced swimming test (reference value: 116.7 +/- 12.3 secs)
Mus musculus [3] = test: Antidepressant activity in Kunming Mus musculus (mouse) assessed as immobility time at 10 mg/kg, ip administered 30 min prior to testing measured after 2 to 6 min by tail suspension test (reference value: 130.5 +/- 9.6 secs)

Row | Compound | mortality at 30 mg/kg (Mus musculus [1]) [%] | Time (Mus musculus [2]) [s] | Time (Mus musculus [3]) [s]
1 | CN(C)CCCN1c2ccccc2CCc2ccc(Cl)cc21 [CLOMIPRAMINE] | 80 |  | 
2 | CNCCC(Oc1ccc(C(F)(F)F)cc1)c1ccccc1 (stereo not drawn) [FLUOXETINE] |  | 68.6 | 75.6
